Measurements taken from patent US11911375B2, “Solid oral nicotine formulation” (Fertin Pharma A/S, priority 2020, dated 2024).

Key:
[1] = Example 15: release of nicotine from NPR (16%) with 1 equivalent of AlCl3 or MgO in water, 28 mg/L nicotine, 25 degrees Celsius, 150 rpm, HPLC; type: physicochemical; settings: 1 equivalent of MgO; release from NPR (16%)
Description: The temperature of the water was 25 degrees Celsius throughout the experiment and stirring of 150 rpm was applied throughout the experiment. pH was measured at experiment start and end.
(§1) A relative low nicotine concentration is used in order to reduce the impact of equilibrium on both the release rate and effective release of nicotine from the ion-exchange resin.
Samples were taken out at varying timepoints and analyzed for nicotine content using standard HPLC. The result is presented as percentage of nicotine released.

[2] = 25 degrees Celsius, atmospheric pressure and pH 7.0; cited from earlier work
[3] = compared with CaCl2; release from NPR (16%)
Description: The temperature of the water was 25 degrees Celsius throughout the experiment and stirring of 100 rpm was applied throughout the experiment. pH was measured at experiment start and end.
as §1
Samples were taken out at varying timepoints and analyzed for nicotine content using standard HPLC. The results are presented as percentage of nicotine released.

| SMILES | Effect of the presence of MgO on release of nicotine [1] | water-solubility [2] | Effect of NaCl on the release of nicotine [3] |
| --- | --- | --- | --- |
| [Mg+2].[O-2] [MgO] | does not increase the release of nicotine | below 5 grams per 100 mL of water |  |
| [Cl-].[Na+] [NaCl] |  |  | much lower effect on the release of nicotine |
